Assay results as given in patent publication US20190247353A1, “ACNE STRAIN-SELECTIVE ANTIBACTERIAL AGENT” (MOMOTANI JUNTENKAN CO., LTD., priority 2016, published 2019).
≈ marks a conversion by molar mass, not a printed value. Read-outs that look alike come from different tables or passages of the source.

How the values were obtained:
Assay type in all cases: cell-based, Propionibacterium acnes
[1] = system: HL043PA1 strain (RT5); assay: MIC by broth microdilution method, HL043PA1 strain; conditions: for MIC: Cutibacterium acnes, read-out: MIC against acne bacterium strain HL043PA1 strain (RT5)
Description: (§1) An MIC is measured herein according to the broth microdilution method which is the standard method of Japanese Society of Chemotherapy.
(§2) The antibacterial activity of a test substance was determined based on the minimum inhibitory concentration (MIC). An MIC was measured according to the broth microdilution method which is the standard method of Japanese Society of Chemotherapy.
(§3) One-loopful of each acne bacterium strain listed in Table 1 was scraped off and inoculated into 5 mL of a GAM broth slant agar medium (pH 7.0, Nissui Pharmaceutical Co., Ltd.).
The inoculated acne bacterium strain was precultured at 37° C. in a nitrogen atmosphere (anaerobic condition) for 48 hours. […]
(§4) Each fatty acid (Tokyo Chemical Industry Co., Ltd.) listed in Table 2 was dissolved in dimethylsulfoxide (DMSO) as a solvent such that the concentration became 10,000 μg/mL, and used as a test substance.
(§5) Each of strain suspensions (5.0×10^4 cfu/mL) was aliquoted in a 96-well round bottom microplate, each of the test substance (fatty acid concentration 10,000 μg/mL) was added at a 1/10 volume to the aliquot and mixed to prepare measurement samples (fatty acid concentration: 1,000 μg/mL). Measurement samples in 2-fold dilution series were prepared using the strain suspension (fatty acid concentration from 0.48 to 1,000 μg/mL).
(§6) The measurement samples were incubated under an anaerobic condition at 37° C. for 2 days. The presence or absence of a precipitation of test microbial cells after the incubation was examined and the minimum concentration at which the precipitation of microbial cells […] was regarded as the MIC (μg/mL) of the test substance against the acne bacterium strain.

[2] = system: HL053PA1 strain (RT4) and HL043PA1 strain (RT5) versus HL110PA3 strain (RT6); assay: Strain-selective antibacterial activity (average of MICRT6/MICRT4 and MICRT6/MICRT5); conditions: for Strain-selective antibacterial activity over the tested pH range, in words: tested pH range pH 5 to 7
From the text: Herein, “acne strain-selective antibacterial activity” or “strain-selective antibacterial activity” means an index indicating better inhibition of growth of a dominant strain in acne patients compared to that of a dominant strain in healthy subjects. It is expressed by the average value of the values (MICRT6/MICRT4, and MICRT6/MICRTS) obtained by dividing the minimum inhibitory concentration (MIC) of an object substance with respect to the dominant strain in healthy subjects (RT6 strain) (MICRT6) respectively by the MIC of the object substance with respect to the dominant strain in acne patients (RT4 strain) (MICRT4), and by the MIC of the object substance with respect to the dominant strain in acne patients (RT5 strain) (MICRT5).
The strain-selective antibacterial activity of each test substance (Table 2, right-most column) was evaluated based on the following rating criteria (Table 3). When the strain-selective antibacterial activity is indicated by a numerical range, the rating was based on the minimum value thereof.

[3] = system: HL110PA4 strain (RT6); assay: MIC by broth microdilution method, HL110PA4 strain; conditions: Cutibacterium acnes; Example 6, method as Example 1; read-out: MIC against acne bacterium strain HL110 PA4 strain (RT6)
Description: as §2
(§7) Each of strain suspensions (5.0×10^4 cfu/mL) was aliquoted in a 96-well round bottom microplate, each of the test substance (fatty acid concentration 10,000 μg/mL) was added at a 1/10 volume to the aliquot and mixed to prepare measurement samples (fatty acid concentration: 1,000 μg/mL). Measurement samples in 2-fold dilution series were prepared using the strain suspension (fatty acid concentration from 0.48 to 1,000 μg/mL). Using a sample containing only the solvent (DMSO) as a control, it was confirmed that the influence of the solvent on the growth of each strain could be neglected.
as §6
(§8) The MIC of each of the following test substances was measured substantially in the same manner as in Example 1 (Table 12) except that a suspension of test bacterium strains was prepared using the dominant strain in acne patients (HL005PA1 strain (HM-492^†, RT4 strain), […] (HM-524^†, RT4 strain), HL045PA1 strain (HM-516^†, RT4 strain), or HL043PA2 strain (HM-514^†, RT5 strain)), or the dominant strain in healthy subjects (HL110PA4 strain (HM-555^†, RT6 strain) instead of the dominant strains in acne patients (HL053PA1 strain (RT4 strain) and HL043PA1 strain (RT5 strain)) and the dominant strain in healthy subjects (HL110PA3 strain (RT6 strain) used in Examples 1 to 3.

[4] = system: HL045PA1 strain (RT4); assay: MIC by broth microdilution method, HL045PA1 strain; conditions: Cutibacterium acnes, PA1; Example 6, method as Example 1; read-out: MIC against acne bacterium strain HL045 PA1 strain (RT4)
Description: as §2, §7, §6, §8

[5] = system: HL005PA1 strain (RT4); assay: MIC by broth microdilution method, HL005PA1 strain; conditions: Cutibacterium acnes, PA1; Example 6, method as Example 1; read-out: MIC against acne bacterium strain HL005 PA1 strain (RT4)
Description: as §2, §7, §6, §8

[6] = system: HL043PA2 strain (RT5); assay: MIC by broth microdilution method, HL043PA2 strain; conditions: Cutibacterium acnes; Example 6, method as Example 1; read-out: MIC against acne bacterium strain HL043 PA2 strain (RT5)
Description: as §2, §7, §6, §8

[7] = system: HL053PA1 strain (RT4); assay: MIC by broth microdilution method, HL053PA1 strain; conditions: for MIC: Cutibacterium acnes, read-out: MIC against acne bacterium strain HL053PA1 strain (RT4)
Description: as §1, §2, §3
The inoculated acne bacterium strain was precultured at 37° C. in a nitrogen atmosphere (anaerobic condition) for 48 hours. The precultured microbial cells were diluted in a modified GAM broth liquid medium (pH 6.0) to a concentration of 5.0×10^4 cfu/mL (viable cell count per OD660=1 is 2.0×10^9 cfu/mL), to prepare strain suspensions.
as §4, §5
[…] The presence or absence of a precipitation of test microbial cells after the incubation was examined and the minimum concentration at which the precipitation of microbial cells […] was regarded as the MIC (μg/mL) of the test substance against the acne bacterium strain.

[8] = 48 h, pH 6.0 modified GAM broth, anaerobic, 37° C., 2 days (Example 1)
[9] = 72 h, pH 5.0, estimated from the growth on day 3
[10] = pH 5.0, estimated from the growth on day 3

MIC [1, 8] [µg/mL] | MIC [1, 9] [µg/mL] | MIC ([1]; pH 5.5) [µg/mL] | MIC ([1]; pH 6.5) [µg/mL] | MIC ([1]; pH 7.0) [µg/mL] | MIC [3] [µg/mL] | MIC [4] [µg/mL] | MIC [5] [µg/mL] | MIC [6] [µg/mL] | MIC [7, 8] [µg/mL] | MIC [7, 9] [µg/mL] | MIC ([7]; pH 5.5) [µg/mL] | SMILES | Strain-selective antibacterial activity ([2]; pH 5.5) | Strain-selective antibacterial activity at each pH ([2]; pH 5.5 (summary Table 10)) | Strain-selective antibacterial activity ([2]; pH 6.0 (Example 1)) | Strain-selective antibacterial activity at each pH ([2]; pH 6 (summary Table 10)) | Strain-selective antibacterial activity ([2]; pH 6.5) | Strain-selective antibacterial activity at each pH ([2]; pH 6.5 (summary Table 10)) | Strain-selective antibacterial activity ([2]; pH 7.0) | Strain-selective antibacterial activity at each pH ([2]; pH 7 (summary Table 10)) | further results
15.6 (≈ 68.3 µM) | 31.3 (≈ 137 µM) | 15.6 (≈ 68.3 µM) | 31.3 (≈ 137 µM) | 250 (≈ 1090 µM) | 250 (≈ 1090 µM) | 31.3 (≈ 137 µM) | 31.3 (≈ 137 µM) | 15.6 (≈ 68.3 µM) | 15.6 (≈ 68.3 µM) | 15.6 (≈ 68.3 µM) | 15.6 (≈ 68.3 µM) | CCCCCCCCCCCCCC(=O)O [Myristic acid (C14:0), Myristic acid] | >64 | >64 | 16 | 16 | >5.0 | >5.0 | 2.0 | 2.0 | Strain-selective antibacterial activity ([2]; pH 5.0): >48; Strain-selective antibacterial activity at each pH ([2]; pH 5 (summary Table 10)): >48; MIC ([7]; pH 6.5): 125 µg/mL (≈ 547 µM); MIC ([7]; pH 7.0): 250 µg/mL (≈ 1090 µM)
7.81 (≈ 30.5 µM) | > 1000 | 62.5 (≈ 244 µM) | 3.9 (≈ 15.2 µM) | 15.6 (≈ 60.8 µM) | > 1000 | 250 (≈ 975 µM) | 62.5 (≈ 244 µM) | 62.5 (≈ 244 µM) | 7.81 (≈ 30.5 µM) | > 1000 | 62.5 (≈ 244 µM) | CCCCCCCCCCCCCCCC(=O)O [Palmitic acid (C16:0), Palmitic acid] | >16 | >16 | >130 | >130 | >130 | >130 | 40 | 40 | MIC against acne bacterium strain HL043PA1 strain (RT5) [1, 10]: >1000 µg/mL; MIC ([7]; pH 6.5): 125 µg/mL (≈ 487 µM); MIC ([7]; pH 7.0): 62.5 µg/mL (≈ 244 µM); MIC against acne bacterium strain HL053PA1 strain (RT4) [7, 10]: >1000 µg/mL
7.81 (≈ 28.9 µM) | > 1000 | 15.6 (≈ 57.7 µM) | 3.9 (≈ 14.4 µM) | 7.8 (≈ 28.8 µM) | > 1000 | 125 (≈ 462 µM) | 62.5 (≈ 231 µM) | 62.5 (≈ 231 µM) | 7.81 (≈ 28.9 µM) | > 1000 | 15.6 (≈ 57.7 µM) | CCCCCCCCCCCCCCCCC(=O)O [Heptadecanoic acid (C17:0), Heptadecanoic acid] | >64 | >64 | >130 | >130 | >140 | >140 | 72 | 72 | MIC against acne bacterium strain HL043PA1 strain (RT5) [1, 10]: >1000 µg/mL; Strain-selective antibacterial activity over the tested pH range, in words [2]: maintained a high strain-selective antibacterial activity between pH 5.5 and pH 7; MIC ([7]; pH 6.5): 31.3 µg/mL (≈ 116 µM); MIC ([7]; pH 7.0): 62.5 µg/mL (≈ 231 µM); MIC against acne bacterium strain HL053PA1 strain (RT4) [7, 10]: >1000 µg/mL
1.95 (≈ 8.04 µM) | 15.6 (≈ 64.4 µM) | 3.9 (≈ 16.1 µM) | 1.95 (≈ 8.04 µM) | 3.9 (≈ 16.1 µM) | 250 (≈ 1030 µM) | 3.9 (≈ 16.1 µM) | 3.9 (≈ 16.1 µM) | 3.9 (≈ 16.1 µM) | 1.95 (≈ 8.04 µM) | 7.81 (≈ 32.2 µM) | 3.9 (≈ 16.1 µM) | CCCCCCCCCCCCCCC(=O)O [Pentadecanoic acid (C15:0), Pentadecanoic acid] | >260 | >260 | 130 | 130 | >96 | >96 | 260 | 260 | Strain-selective antibacterial activity ([2]; pH 5.0): >96; Strain-selective antibacterial activity at each pH ([2]; pH 5 (summary Table 10)): >96; Strain-selective antibacterial activity over the tested pH range, in words [2]: maintained a high strain-selective antibacterial activity over the entire pH range tested (pH 5 to 7); MIC ([7]; pH 6.5): 3.9 µg/mL (≈ 16.1 µM); MIC ([7]; pH 7.0): 3.9 µg/mL (≈ 16.1 µM)
